From US9708337B2, “Aryl amide-based kinase inhibitors” (Bristol-Myers Squibb Company, priority 2013, dated 2017)
Where two headings read alike, the source gives them in different places.

Molecular target: AAK1 (GST-Xa-hAAK1) (Homo sapiens (Human), UniProt Q2M2I8)
Experiment: AAK1 Kinase Assay
Format: biochemical
Protocol: The assays were performed in U-bottom 384-well plates. […] The reactions were initiated by the combination of bacterially expressed, GST-Xa-hAAK1 with substrates and test compounds. The reactions were incubated at room temperature for 3 hours and terminated by adding 60 μl of 35 mM EDTA buffer to each sample. […] Compounds were dissolved at 10 mM in dimethylsulfoxide (DMSO) and evaluated at eleven concentrations. IC50 values were derived by non-linear regression analysis.

[1] = Table 1a, listed as IC50 ranges, ATP 22 μM, read-out: AAK1 IC50
[2] = Table 1a, numeric values, ATP 22 μM, read-out: AAK1 IC50

AAK1 (GST-Xa-hAAK1), sequence (Q2M2I8 whole entry): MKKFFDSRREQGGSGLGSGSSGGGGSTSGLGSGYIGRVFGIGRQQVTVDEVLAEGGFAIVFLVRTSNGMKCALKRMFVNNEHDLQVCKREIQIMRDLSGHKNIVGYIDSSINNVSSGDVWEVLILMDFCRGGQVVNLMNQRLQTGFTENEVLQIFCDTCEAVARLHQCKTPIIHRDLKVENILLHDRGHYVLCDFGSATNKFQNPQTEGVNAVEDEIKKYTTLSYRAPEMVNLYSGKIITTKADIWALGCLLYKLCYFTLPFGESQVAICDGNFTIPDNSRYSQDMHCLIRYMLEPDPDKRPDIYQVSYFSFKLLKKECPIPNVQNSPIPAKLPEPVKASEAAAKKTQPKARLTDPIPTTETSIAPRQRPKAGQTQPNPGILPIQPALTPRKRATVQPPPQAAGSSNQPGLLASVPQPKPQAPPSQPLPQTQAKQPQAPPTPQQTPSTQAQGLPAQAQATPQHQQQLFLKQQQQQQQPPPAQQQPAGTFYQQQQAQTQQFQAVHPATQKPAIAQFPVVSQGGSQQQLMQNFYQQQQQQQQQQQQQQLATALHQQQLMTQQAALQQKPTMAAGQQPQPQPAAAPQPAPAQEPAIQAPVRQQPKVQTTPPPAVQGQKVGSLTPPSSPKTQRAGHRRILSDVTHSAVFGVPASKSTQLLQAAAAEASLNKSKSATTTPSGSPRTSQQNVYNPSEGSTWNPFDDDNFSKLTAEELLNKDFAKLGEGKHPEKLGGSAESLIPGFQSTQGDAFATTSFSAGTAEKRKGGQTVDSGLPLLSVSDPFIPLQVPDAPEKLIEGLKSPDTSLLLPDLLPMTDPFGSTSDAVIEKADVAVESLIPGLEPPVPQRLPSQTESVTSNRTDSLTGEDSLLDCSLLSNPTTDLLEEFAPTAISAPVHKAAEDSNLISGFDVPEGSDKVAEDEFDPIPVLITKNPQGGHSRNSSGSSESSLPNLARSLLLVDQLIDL

Compound | IC50 [nM] | also measured
CC(C)C[C@H](N)C(=O)Nc1ccc2c(c1)oc(=O)c1cnccc12 [Example 11, (S)-2-amino-4-methyl-N-(5-oxo-5H-chromeno[3,4-c]pyridin-8-yl)pentanamide] | – | IC50 [1]: 100 to 1200 nM
CC(C)C(=O)Nc1ccc2c(c1)OCc1cnccc1-2 [Example 24, N-(5H-chromeno[3,4-c]pyridin-8-yl)isobutyramide] | 100 to 1200 | –
CC(=O)Nc1ccc2c(c1)OCc1cnccc1-2 [Example 17, N-(5H-chromeno[3,4-c]pyridin-8-yl)acetamide] | 100 to 1200 | –
O=C(Nc1ccc2c(c1)OCc1cnccc1-2)NC1CCCCC1 [Example 13, 1-(5H-chromeno[3,4-c]pyridin-8-yl)-3-cyclohexylurea] | 100 to 1200 | –
NS(=O)(=O)CCCC(=O)Nc1ccc2c(c1)OCc1cnccc1-2 [Example 21, N-(5H-chromeno[3,4-c]pyridin-8-yl)-4-sulfamoylbutanamide] | 100 to 1200 | –
CC(C)CC(=O)Nc1ccc2c(c1)OCc1cnccc1-2 [Example 27, N-(5H-chromeno[3,4-c]pyridin-8-yl)-3-methylbutanamide] | 10 to 100 | –
O=C(CCO)Nc1ccc2c(c1)OCc1cnccc1-2 [Example 19, N-(5H-chromeno[3,4-c]pyridin-8-yl)-3-hydroxypropanamide] | 100 to 1200 | –
O=C(Nc1ccc2c(c1)OCc1cnccc1-2)C1CCCCC1 [Example 23, N-(5H-chromeno[3,4-c]pyridin-8-yl)cyclohexanecarboxamide] | 100 to 1200 | –
N[C@H](CNc1ccc2c(c1)OCc1cnccc1-2)c1ccccc1 [Example 37, (S)—N^1-(5H-chromeno[3,4-c]pyridin-8-yl)-2-phenylethane-1,2-diamine] | 10 to 100 | –
CC(C)C[C@H](N)C(=O)Nc1ccc2c(c1)OC(C)(C)c1cnccc1-2 [Example 9, (S)-2-amino-N-(5,5-dimethyl-5H-chromeno[3,4-c]pyridin-8-yl)-4-methylpentanamide] | – | IC50 [2]: 129 nM
CC(C)(C)CC(=O)Nc1ccc2c(c1)OCc1cnccc1-2 [Example 26, N-(5H-chromeno[3,4-c]pyridin-8-yl)-3,3-dimethylbutanamide] | 10 to 100 | –
N[C@H](C(=O)Nc1ccc2c(c1)OCc1cnccc1-2)c1ccccc1 [Example 36, (S)-2-amino-N-(5H-chromeno[3,4-c]pyridin-8-yl)-2-phenylacetamide] | – | IC50 [2]: 8.9 nM
N#CCC(=O)Nc1ccc2c(c1)OCc1cnccc1-2 [Example 25, N-(5H-chromeno[3,4-c]pyridin-8-yl)-2-cyanoacetamide] | 100 to 1200 | –
COCCC(=O)Nc1ccc2c(c1)OCc1cnccc1-2 [Example 18, N-(5H-chromeno[3,4-c]pyridin-8-yl)-3-methoxypropanamide] | 100 to 1200 | –
CC(C)(C)COC(=O)Nc1ccc2c(c1)OCc1cnccc1-2 [Example 12, neopentyl 5H-chromeno[3,4-c]pyridin-8-ylcarbamate] | 100 to 1200 | –
CCC(=O)Nc1ccc2c(c1)OCc1cnccc1-2 [Example 28, N-(5H-chromeno[3,4-c]pyridin-8-yl)propionamide] | 100 to 1200 | –

Compound | IC50 [nM] | also measured
CCCCC(=O)Nc1cc2c(cc1Br)-c1ccncc1CO2 [Example 34, N-(9-bromo-5H-chromeno[3,4-c]pyridin-8-yl)pentanamide] | 10 to 100 | –
CCCCC(=O)Nc1ccc2c(c1)OCc1cnccc1-2 [Example 15, N-(5H-chromeno[3,4-c]pyridin-8-yl)pentanamide] | – | IC50 [2]: 26 nM
CCCC(=O)Nc1ccc2c(c1)OCc1cnccc1-2 [Example 31, N-(5H-chromeno[3,4-c]pyridin-8-yl)butyramide] | 10 to 100 | –
CC(C)CCC(=O)Nc1ccc2c(c1)OCc1cnccc1-2 [Example 30, N-(5H-chromeno[3,4-c]pyridin-8-yl)-4-methylpentanamide] | – | IC50 [1]: 10 to 100 nM
CC(C)C[C@@H](N)C(=O)Nc1ccc2c(c1)OC(C)(C)c1cnccc1-2 [Example 8, (R)-2-amino-N-(5,5-dimethyl-5H-chromeno[3,4-c]pyridin-8-yl)-4-methylpentanamide] | 10 to 100 | –
CC(C)C1CCCNC1C(=O)Nc1ccc2c(c1)OCc1cnccc1-2 (centres unmarked) [Example 10, N-(5H-chromeno[3,4-c]pyridin-8-yl)-3-isopropylpiperidine-2-carboxamide] | – | IC50 [2]: 1.3 nM
CC(C)C[C@H](N)C(=O)Nc1ccc2c(c1)OCc1cnccc1-2 [Example 2, (S)-2-amino-N-(5H-chromeno[3,4-c]pyridin-8-yl)-4-methylpentanamide] | 1 to 10 | –
O=C(CCN1CCCC1=O)Nc1ccc2c(c1)OCc1cnccc1-2 [Example 22, N-(5H-chromeno[3,4-c]pyridin-8-yl)-3-(2-oxopyrrolidin-1-yl)propanamide] | – | IC50 [2]: 1200 nM
CC(C)(C)C(=O)Nc1ccc2c(c1)OCc1cnccc1-2 [Example 32, N-(5H-chromeno[3,4-c]pyridin-8-yl)pivalamide] | 100 to 1200 | –
N#CCCC(=O)Nc1ccc2c(c1)OCc1cnccc1-2 [Example 16, N-(5H-chromeno[3,4-c]pyridin-8-yl)-3-cyanopropanamide] | – | IC50 [1]: 100 to 1200 nM
CC(C)C[C@@H](N)C(=O)Nc1ccc2c(c1)OCc1cnccc1-2 [Example 1, (R)-2-amino-N-(5H-chromeno[3,4-c]pyridin-8-yl)-4-methylpentanamide] | 1 to 10 | –
N#CC1(C(=O)Nc2ccc3c(c2)OCc2cnccc2-3)CC1 [Example 20, N-(5H-chromeno[3,4-c]pyridin-8-yl)-1-cyanocyclopropanecarboxamide] | 100 to 1200 | –
CC(=O)Nc1cc2c(cn1)COc1cc(NC(=O)[C@@H](N)CC(C)C)ccc1-2 [Example 35, (S)—N-(2-acetamido-5H-chromeno[3,4-c]pyridin-8-yl)-2-amino-4-methylpentanamide] | – | IC50 [1]: 10 to 100 nM
CN(C)CC(=O)Nc1ccc2c(c1)OCc1cnccc1-2 [Example 33, N-(5H-chromeno[3,4-c]pyridin-8-yl)-2-(dimethylamino)acetamide] | – | IC50 [1]: 100 to 1200 nM
C#CCCC(=O)Nc1ccc2c(c1)OCc1cnccc1-2 [Example 14, N-(5H-chromeno[3,4-c]pyridin-8-yl)pent-4-ynamide] | 10 to 100 | –
COC(=O)CCC(=O)Nc1ccc2c(c1)OCc1cnccc1-2 [Example 29, methyl 4-((5H-chromeno[3,4-c]pyridin-8-yl)amino)-4-oxobutanoate] | 100 to 1200 | –
